The source made the active and inactive calls. No cut-off for these calls is given here.
Tests used:
[1] = target: Transcriptional coactivator YAP1 (Homo sapiens) (UniProt P46937); experiment: Inhibition of YAP nuclear localization in human Huh-7 cells assessed as decrease in mean YAP intensity incubated for 12 hrs by immunofluorescence based microscopic analysis; format: cell-based; conditions: dose <= 20.0 µM
[2] = target: T1, von Hippel-Lindau disease tumor suppressor/Transcriptional coactivator YAP1 (Homo sapiens, UniProt P40337+P46937); experiment: PROTAC activity at YAP/VHL in human NCI-H226 cells assessed as induction of YAP degradation at 20 uM incubated at 48 hrs by Western blot analysis; format: cell-based
T1 sequence (P40337 whole entry, looked up): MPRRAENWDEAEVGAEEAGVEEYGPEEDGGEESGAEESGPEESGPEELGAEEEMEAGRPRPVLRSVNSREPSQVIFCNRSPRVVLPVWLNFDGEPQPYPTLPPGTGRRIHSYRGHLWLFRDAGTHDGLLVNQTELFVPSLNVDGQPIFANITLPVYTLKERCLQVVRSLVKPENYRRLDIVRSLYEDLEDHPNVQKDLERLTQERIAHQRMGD
T1 sequence (P46937 whole entry, looked up): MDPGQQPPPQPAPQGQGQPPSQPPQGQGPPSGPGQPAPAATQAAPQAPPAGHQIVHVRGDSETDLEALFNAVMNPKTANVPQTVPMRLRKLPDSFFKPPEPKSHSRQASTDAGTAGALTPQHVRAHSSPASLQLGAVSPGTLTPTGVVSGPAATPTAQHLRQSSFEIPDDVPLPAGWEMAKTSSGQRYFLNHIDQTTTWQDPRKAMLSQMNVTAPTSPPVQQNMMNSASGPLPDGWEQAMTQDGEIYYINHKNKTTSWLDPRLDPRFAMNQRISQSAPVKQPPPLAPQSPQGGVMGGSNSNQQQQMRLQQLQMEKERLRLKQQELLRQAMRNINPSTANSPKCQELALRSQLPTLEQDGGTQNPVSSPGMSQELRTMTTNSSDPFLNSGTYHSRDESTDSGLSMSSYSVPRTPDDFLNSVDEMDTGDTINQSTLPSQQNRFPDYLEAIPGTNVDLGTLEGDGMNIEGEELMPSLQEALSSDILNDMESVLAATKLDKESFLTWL

Huh-7 = experiment: Antitumor activity against human Huh-7 cells xenografted in immunodeficient male NSG mouse assessed as suppression of YAP expression at 35 mg/kg, ip administered every 3 days for 24 days; format: functional, organism-based; conditions: time 24.0 day
[3] = target: T1, von Hippel-Lindau disease tumor suppressor/Transcriptional coactivator YAP1; experiment: PROTAC activity at YAP/VHL in human Huh-7 cells assessed as induction of YAP degradation at 20 uM measured for 24 hrs by Western blot analysis relative to control; format: cell-based
[4] = Tmax in Sprague-Dawley rat at 35 mg/kg, ip measured upto 24 hrs by LC-MS/MS analysis; format: ADME, organism-based; conditions: in vivo
[5] = Toxicity in immunodeficient male NSG mouse xenografted with human Huh-7 cells assessed as change in total bilirubin level in liver at 35 mg/kg, ip administered every 3 days for 24 days; format: organism-based; conditions: in vivo, 576 h, time 24 day
[6] = target: T2, von Hippel-Lindau disease tumor suppressor/WW domain-containing transcription regulator protein 1 (Homo sapiens) (UniProt P40337+Q9GZV5); experiment: PROTAC activity at TAZ/VHL in human Huh-7 cells assessed as induction of TAZ degradation at 5 to 20 uM incubated for 24 hrs by Western blot analysis; format: cell-based; conditions: dose 5-20 µM
T2 sequence (P40337 whole entry, looked up, the tested form may be a part): as the sequence (P40337 whole entry, looked up) above
T2 sequence (Q9GZV5 whole entry, looked up, the tested form may be a part): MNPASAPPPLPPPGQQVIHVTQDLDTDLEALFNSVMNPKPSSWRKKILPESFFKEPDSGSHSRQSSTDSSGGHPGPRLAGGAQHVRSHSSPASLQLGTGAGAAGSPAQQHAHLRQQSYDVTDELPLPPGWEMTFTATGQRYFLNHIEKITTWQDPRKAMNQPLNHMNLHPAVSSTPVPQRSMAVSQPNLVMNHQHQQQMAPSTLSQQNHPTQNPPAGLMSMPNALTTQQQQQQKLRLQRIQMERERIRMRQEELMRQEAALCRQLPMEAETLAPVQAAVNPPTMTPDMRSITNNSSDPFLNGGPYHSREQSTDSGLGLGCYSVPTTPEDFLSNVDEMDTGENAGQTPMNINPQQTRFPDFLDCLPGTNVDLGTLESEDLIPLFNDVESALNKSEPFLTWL

[7] = target: T2, von Hippel-Lindau disease tumor suppressor/WW domain-containing transcription regulator protein 1 (Homo sapiens); experiment: PROTAC activity at TAZ/VHL in human Huh-7 cells assessed as reduction in TAZ expression incubated for 24 hrs by Western blot analysis; format: cell-based; conditions: dose 5-20 µM
[8] = Cmax in Sprague-Dawley rat at 35 mg/kg, ip measured upto 24 hrs by LC-MS/MS analysis; format: ADME, organism-based; conditions: in vivo
[9] = target: T1, von Hippel-Lindau disease tumor suppressor/Transcriptional coactivator YAP1; experiment: PROTAC activity at YAP/VHL in human NCI-H226 cells assessed as induction of YAP degradation at 2.5 to 20 uM incubated for 48 hrs by Western blot analysis relative to control; format: cell-based; conditions: dose 2.5-20 µM
[10] = target: T1, von Hippel-Lindau disease tumor suppressor/Transcriptional coactivator YAP1; experiment: PROTAC activity at YAP/VHL in human Huh-7 cells assessed as induction of YAP degradation at 20 uM measured for 24 hrs in presence of MLN-4924 by Western blot analysis; format: cell-based
[11] = Toxicity in immunodeficient male NSG mouse xenografted with human Huh-7 cells assessed as morphological abnormalities in liver at 35 mg/kg, ip administered every 3 days for 24 days by H and E staining based analysis; format: organism-based; conditions: in vivo, 576 h, time 24 day
[12] = target: T1, von Hippel-Lindau disease tumor suppressor/Transcriptional coactivator YAP1; experiment: PROTAC activity at YAP/VHL in human Huh-7 cells assessed as induction of YAP degradation at 20 uM incubated at 12 hrs by Western blot analysis; format: cell-based
[13] = target: T1, von Hippel-Lindau disease tumor suppressor/Transcriptional coactivator YAP1; experiment: PROTAC activity at YAP/VHL in human NCI-H226 cells assessed as reduction in CTGF expression at 5 uM incubated for 48 hrs by Western blot analysis; format: cell-based
[14] = MRT (0 to infinity) in Sprague-Dawley rat at 35 mg/kg, ip measured upto 24 hrs by LC-MS/MS analysis; format: ADME, organism-based; conditions: in vivo
NCI-H2452 = experiment: Antiproliferative activity against human NCI-H2452 cells expressing NF2 assessed as reduction in cell viability incubated for 4 days by CCK-8 assay; format: functional, cell-based; conditions: time 4.0 day

Transcriptional coactivator YAP1 (Homo sapiens), sequence (P46937 whole entry): as the sequence (P46937 whole entry, looked up) above

With COc1cc(-c2cc(-c3ccccc3)nc3c2CC(=O)Nc2ccccc2-3)ccc1OCCOCCOCCC(=O)N[C@H](C(=O)N1C[C@H](O)C[C@H]1C(=O)N[C@@H](C)c1ccc(-c2scnc2C)cc1)C(C)(C)C the inhibition [1] was “Dose-Dependent Effect”, the Activity [2] was 97% and the Activity (Huh-7) was “Active”. For the same compound, the Activity [3] was 78%, the Tmax [4] was 3.33 h and the Activity [5] was “Non-Toxic”. The Activity [6] was “Active”, the Activity [7] was “Dose-Dependent Effect” and the Cmax [8] was 193 ng/mL. The Emax [9] was 97%, the Activity [10] was “Active” and the Activity [11] was “Non-Toxic”. The Activity [12] was 10%, the Activity [13] was “Active” and the MRT inf [14] was 19.9 h. The Activity (NCI-H2452) was “inactive”.

Reference: ChEMBL document CHEMBL5584348, “Exploring Degradation of Intrinsically Disordered Protein Yes-Associated Protein Induced by Proteolysis TArgeting Chimeras” (J Med Chem, 2024)
